Test results published in article PMC11645656, “MRGPRX4 mediates phospho-drug associated pruritus in a humanized mouse model” (Science translational medicine, 2024).
pEC50: −log10 of the molar value. “And” between values parts separate entries of the source, which are not always exact repeats. Identical values can stand only once.

How the values were obtained:
MRGPRX4 (S83) = target: T1, MRGPRX4 (S83) (Homo sapiens, UniProt Q96LA9, L83S); experiment: EC50 determination, intracellular calcium mobilization in MRGPRX4 stably expressed HEK293 cells (FLIPR Calcium 5, Flexstation-3); format: cell-based; set-up: Fig. 1D dose-response, calcium mobilization response (individual replicate) / calcium mobilization response (Fig. 1D dose-response raw data): unit not given here; conditions: for calcium mobilization response (Fig. 1D dose-response raw data): individual replicate values
T1 construct: expressed in transfected cells
Procedure, shortened: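 EC50 came from a four-parameter logistic fit to averaged triplicate responses, each response being maximum post-stimulation signal less baseline. Intracellular calcium was monitored with Calcium 5 dye in HBSS with 20 mM HEPES, pH 7.4, after 1 h dye loading at 37 °C, using stably transfected HEK293 cells and parental controls.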

NP2-WT mice = experiment: Itch behavioral study (scratching bouts after subcutaneous nape injection) in littermate control NP2-WT mice; format: in vivo; conditions: 30 min after injection of 50 μl 10 mM into the nape, each cell one mouse
Text: Fig. 2. Phosphate monoester prodrugs induce itch in NP2-MRGPRX4+ mice through activating NP2 primary sensory neurons. (A) Mating strategy to generate NP2-X4+ mice. (B) In situ hybridization showing MRGPRX4 transcripts (magenta) in NP2-X4+ DRG as indicated by arrowheads (left) but not in littermate control NP2-WT (right). NP2 subpopulation accounts for 5% of total DRG neurons. DAPI, blue. Scale bar, 50 μm. […] . Data are expressed as mean ± SEM. *p< 0.05, **p< 0.01 and ***p< 0.001 by two-tailed unpaired Student’s t-test. ns = no statistical significance observed. (D and E) Traces of average (top, depicted as mean ± 95% confidence interval) and individual (bottom, reflected by the heatmap) calcium activity, measured by fluorescence intensity normalized to the baseline intensity (FT/F0) over time of NP2-X4+ (D) and NP2-WT (E) DRG neurons labelled with GCaMP6s (n = 110–150 neurons pooled from 3–7 independent culture vessels from 2–4 mice in each condition). 10 μM phospho-drugs and 1 mM CQ were added as indicated by the arrowheads. Neurons with FT/F0 > 1.5 after compound application were considered a positive responder. NP2-X4+: NP2-MRGPRX4+; DRG, dorsal root ganglia; CQ: chloroquine.
. All the animals used were heterozygous unless otherwise specified. NP2-X4+ and NP2-WT littermates were generated by crossing Mrgpra3-Cre to Rosa26-lsl-MRGPRX4 as detailed previously ([15]). NP2-X4+ mice were further crossed to homozygous Rosa26-lsl-GCaMP6s to obtain NP2-WT/GCaMP6s and NP2-X4+/GCaMP6s animals. A detailed mating strategy is illustrated in fig. S5. Pirt-Cre-GCaMP6s animals were acquired by crossing Pirt-Cre to homozygous Rosa26-lsl-GCaMP6s. Pirt-Cre animals were generated through homologous recombination as indicated previously ([37]). Rosa26-lsl-GCaMP6s mouse line was provided by Dr. Dwight Bergles’ lab at the Johns Hopkins School of Medicine.

[1] = IV, clinical trials; ref New Drug Application: 020450; cited from earlier work
MRGPRX4 WT (S83) = MRGPRX4 WT (S83) (Homo sapiens, UniProt Q96LA9, L83S); experiment: PRESTO-Tango β-arrestin recruitment assay, HTLA cells stably expressing WT (S83) MRGPRX4; format: cell-based; set-up: expressed in transfected cells; conditions: for PRESTO-Tango response (fig. S1), single replicate: HTLA::MRGPRX4; for fig. S7 response (raw signal), concentration-response: WT, single replicate
Method: HTLA cells, a cell line derived from HEK293 and engineered to stably express a tTA-dependent luciferase reporter and a β-arrestin2-TEV fusion gene, were generously provided by Richard Axel's laboratory. HTLA cells were cultured in growth medium containing 2 μg/ml puromycin and 100 μg/ml hygromycin B in 5% CO2 at 37 °C. Stably MRGPRX4-expressing HTLA cells were generated by transfecting pcDNA3.1(+)-Zeo containing MRGPRX4-Tango construct (either with WT or S83L mutant sequence) into HTLA cells with Lipofectamine 3000 and selecting the successful transfected clones with Zeocin.
HTLA cells stably expressing either WT or S83L MRGPRX4 were seeded in PDL-coated 96-well white clear bottom cell culture plates with DMEM containing 10% FBS, at a density of 35,000 cells per well and were allowed to attach to the bottom of the wells overnight. The next day, growth medium was replaced with 100 μl of serum-free medium containing the tested drugs at various concentrations, and the cells were then incubated at 37°C for 24 h. On the following day, media with drug solutions was removed and 50 μl per well of Bright-Glo™ Reagent from Bright-Glo™ Luciferase Assay System (Promega) was loaded. The plate was incubated at room temperature in the dark for 5 min, and the relative luminescence units were measured using the Flexstation-3 instrument with SoftMax®Pro 7.1 software (Molecular Devices). Dose response curves and EC50s were analyzed as described above.
Data are from at least two independent experiments, each performed in
triplicate, and are depicted as mean ± SEM.
arrestin2-TEV fusion gene and a tTA -dependent luciferase reporter.

T1 sequence (Q96LA9 whole entry L83S): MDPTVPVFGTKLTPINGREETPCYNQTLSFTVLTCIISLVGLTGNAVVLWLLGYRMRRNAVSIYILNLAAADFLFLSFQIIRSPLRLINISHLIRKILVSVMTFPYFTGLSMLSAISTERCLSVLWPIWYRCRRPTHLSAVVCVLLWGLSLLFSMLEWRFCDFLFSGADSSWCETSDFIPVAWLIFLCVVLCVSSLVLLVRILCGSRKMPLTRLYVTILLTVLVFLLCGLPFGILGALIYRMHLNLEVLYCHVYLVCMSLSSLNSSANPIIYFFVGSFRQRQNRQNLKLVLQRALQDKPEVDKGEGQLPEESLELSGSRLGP
MRGPRX4 WT (S83), sequence (Q96LA9 whole entry L83S, the tested form may be a part): as the sequence (Q96LA9 whole entry L83S) above

O=C1NC(c2ccccc2)(c2ccccc2)C(=O)N1COP(=O)(O)O [Fosphenytoin]
pEC50 (MRGPRX4 (S83); MRGPRX4 stably expressed HEK293 cells, calcium mobilization, read-out: EC50): 7.11 | calcium mobilization response (Fig. 1D dose-response raw data) (MRGPRX4 (S83); concentration 3.90625e-9 M): 21.206 and 25.291 and 2.769 and 3.958 and -8.2623 and 8.875 and 8.837 and 9.145 and 8.934 | calcium mobilization response (Fig. 1D dose-response raw data) (MRGPRX4 (S83); concentration 7.8125e-9 M): -14.542 and 13.805 and 7.794 and 12.8387 and 12.8087 and 12.5987 and 3.298 and 9.875 and 9.477 | calcium mobilization response (Fig. 1D dose-response raw data) (MRGPRX4 (S83); concentration 1.5625e-8 M): 19.866 and 22.527 and 5.041 and 1.449 and 6.253 and 14.7987 and -3.2365 and 13.5705 and -5.8765 | calcium mobilization response (Fig. 1D dose-response raw data) (MRGPRX4 (S83); concentration 3.125e-8 M): 57.235 and 30.337 and 81.497 and 17.5777 and 19.6667 and 31.6637 and -30.287 and 41.9265 and -1.7705 | calcium mobilization response (Fig. 1D dose-response raw data) (MRGPRX4 (S83); concentration 6.25e-8 M): 190.544 and 229.236 and 134.524 and 58.9937 and 67.8137 and 76.3827 and 88.4165 and 111.221 and 55.6105 | calcium mobilization response (Fig. 1D dose-response raw data) (MRGPRX4 (S83); concentration 1.25e-7 M): 316.003 and 301.004 and 304.213 and 117.536 and 116.768 and 79.1877 and 194.175 and 173.792 and 144.932 | calcium mobilization response (Fig. 1D dose-response raw data) (MRGPRX4 (S83); concentration 2.5e-7 M): 345.7 and 324.779 and 337.838 and 121.175 and 136.568 and 118.794 and 200.38 and 226.084 and 171.163 | calcium mobilization response (Fig. 1D dose-response raw data) (MRGPRX4 (S83); concentration 5e-7 M): 387.516 and 373.964 and 353.304 and 134.73 and 112.159 and 119.649 and 195.132 and 238.81 and 185.954 | calcium mobilization response (Fig. 1D dose-response raw data) (MRGPRX4 (S83); concentration 1e-6 M): 410.183 and 413.027 and 415.898 and 143.736 and 123.579 and 132.916 and 226.932 and 271.213 and 250.762 | calcium mobilization response (Fig. 1D dose-response raw data) (MRGPRX4 (S83); concentration 2e-6 M): 394.314 and 370.112 and 382.271 and 127.759 and 125.948 and 138.324 and 218.164 and 295.676 and 255.523 | Hill coefficient (MRGPRX4 (S83); dose-response curve fitting, table S1): 1.917 | Scratching bouts of individual animals (NP2-WT mice): 33 and 0 and 2 and 9 and 5 and 14 and 6 and 20 and 4 | Patients who reported itch [1]: 48.9% | PRESTO-Tango response (fig. S1), single replicate (MRGPRX4 WT (S83); concentration 1.95e-7 M): 0.2272 and 0.1839 and 0.1708 and 0.08379 and 0.0626 and 0.06306 | PRESTO-Tango response (fig. S1), single replicate (MRGPRX4 WT (S83); concentration 3.91e-7 M): 0.258 and 0.2297 and 0.204 and 0.07839 and 0.196 and 0.08224 | PRESTO-Tango response (fig. S1), single replicate (MRGPRX4 WT (S83); concentration 7.81e-7 M): 0.5296 and 0.4272 and 0.4321 and 0.1295 and 0.1604 and 0.1155 | PRESTO-Tango response (fig. S1), single replicate (MRGPRX4 WT (S83); concentration 1.56e-6 M): 1.193 and 1.025 and 0.8155 and 0.2489 and 0.1773 and 0.193 | PRESTO-Tango response (fig. S1), single replicate (MRGPRX4 WT (S83); concentration 3.13e-6 M): 2.598 and 2.433 and 2.514 and 0.4404 and 0.5024 and 0.4535 | PRESTO-Tango response (fig. S1), single replicate (MRGPRX4 WT (S83); concentration 6.25e-6 M): 5.285 and 4.4353 and 4.292 and 0.9622 and 0.8766 and 0.6627 | PRESTO-Tango response (fig. S1), single replicate (MRGPRX4 WT (S83); concentration 1.25e-5 M): 7.96 and 6.958 and 5.919 and 1.839 and 1.437 and 1.511 | PRESTO-Tango response (fig. S1), single replicate (MRGPRX4 WT (S83); concentration 2.5e-5 M): 10.7681 and 8.616 and 8.444 and 2.5381 and 2.199 and 2 | PRESTO-Tango response (fig. S1), single replicate (MRGPRX4 WT (S83); concentration 5e-5 M): 10.7109 and 8.966 and 9.235 and 2.8872 and 2.833 and 2.449 | PRESTO-Tango response (fig. S1), single replicate (MRGPRX4 WT (S83); concentration 0.0001 M): 9.427 and 8.942 and 7.727 and 3.267 and 2.882 and 2.338 | PRESTO-Tango response (fig. S1), single replicate (MRGPRX4 WT (S83); concentration 0.0002 M): 8.979 and 8.052 and 6.854 and 2.562 and 2.3992 and 2.255 | fig. S7 response (raw signal), concentration-response (MRGPRX4 WT (S83); 1.95e-7 M): 22724.6 and 18390.5 and 17083.6 and 8378.77 and 6259.78 and 6305.82 and 12291.8 and 11793.8 and 15486 | fig. S7 response (raw signal), concentration-response (MRGPRX4 WT (S83); 3.91e-7 M): 25803.9 and 22965.5 and 20401.3 and 7839.11 and 19602.9 and 8224.03 and 24524.9 and 14963.1 and 12930.4 | fig. S7 response (raw signal), concentration-response (MRGPRX4 WT (S83); 7.81e-7 M): 52955.5 and 42723 and 43213.9 and 12950.5 and 16037.6 and 11551.5 and 30971.1 and 30307.2 and 28437.7 | fig. S7 response (raw signal), concentration-response (MRGPRX4 WT (S83); 1.56e-6 M): 119282 and 102488 and 81549.3 and 24892.1 and 17734.6 and 19298.5 and 55751 and 73836.3 and 53034.5 | fig. S7 response (raw signal), concentration-response (MRGPRX4 WT (S83); 3.13e-6 M): 259763 and 243320 and 251368 and 44035.9 and 50243.2 and 45345.4 and 138332 and 159511 and 149195 | fig. S7 response (raw signal), concentration-response (MRGPRX4 WT (S83); 6.25e-6 M): 528451 and 443530 and 429228 and 96221.6 and 87656.1 and 66266.7 and 291383 and 234158 and 300136 | fig. S7 response (raw signal), concentration-response (MRGPRX4 WT (S83); 1.25e-5 M): 795954 and 695772 and 591944 and 183925 and 143683 and 151143 and 437126 and 336645 and 507439 | fig. S7 response (raw signal), concentration-response (MRGPRX4 WT (S83); 2.5e-5 M): 1076811 and 861577 and 844388 and 253810 and 219862 and 200044 and 648692 and 547623 and 531932 | fig. S7 response (raw signal), concentration-response (MRGPRX4 WT (S83); 5e-5 M): 1071085 and 896572 and 923510 and 288720 and 283304 and 244853 and 667677 and 558954 and 627391 | fig. S7 response (raw signal), concentration-response (MRGPRX4 WT (S83); 0.0001 M): 942731 and 894246 and 772701 and 326668 and 288202 and 233769 and 534832 and 581310 and 583017 | fig. S7 response (raw signal), concentration-response (MRGPRX4 WT (S83); 0.0002 M): 897926 and 805208 and 685441 and 256156 and 239920 and 225546 and 318639 and 44935
